# Assays:
# [1] = Drug distribution in BALB/C mouse xenografted with human HCT-15 cells assessed as increase in photoacoustic signal in tumor at 12 nmol at iv administration observed after 24 hrs by photoacoustic imaging analysis; type: ADME, organism-based, Neoplasm; conditions: in vivo
# [2] = Drug distribution in BALB/C mouse xenografted with human HCT-15 cells by measuring fluorescence intensity ratio in muscle tissue at 12 nmol at iv administration observed after 24 hrs by IVIS imaging analysis; type: ADME, organism-based; conditions: in vivo
# [3] = Drug distribution in BALB/C mouse xenografted with human HCT-15 cells assessed as increase in fluorescence intensity in liver at 12 nmol at iv administration observed after 24 hrs by IVIS imaging analysis; type: ADME, organism-based; conditions: in vivo
# [4] = test system: HFF-1; test: Cytotoxicity against human HFF-1 cells at 1 to 10 uM incubated for 24 hrs by MTT assay; type: toxicity, cell-based; conditions: hff-1, 24 h, dose 1-10 µM
# [5] = Drug distribution in BALB/C mouse xenografted with human HCT-15 cells by measuring fluorescence intensity ratio in tumor at 12 nmol at iv administration observed after 2 hrs by IVIS imaging analysis; type: ADME, organism-based, Neoplasm; conditions: in vivo
# [6] = Drug distribution in BALB/C mouse xenografted with human HCT-15 cells assessed as increase in photoacoustic signal in tumor at 12 nmol at iv administration observed after 6 hrs by photoacoustic imaging analysis; type: ADME, organism-based, Neoplasm; conditions: in vivo
# [7] = test system: HCT-15; test: Cytotoxicity against human HCT-15 cells assessed as cell viability at 10 uM incubated for 24 hrs by MTT assay; type: functional; conditions: read-out: Activity
# [8] = biological target: T1, Cytochrome P450 1B1 (Homo sapiens, UniProt Q16678); test: Binding affinity to CYP1B1 in human HCT-15 cells assessed as increase in fluorescence signal at 0.5 to 1 uM incubated for 1 hr in presence of compound 14c by DAPI staining based confocal laser scanning microscopic analysis; type: ADME, cell-based; conditions: hct-15, 1 h, dose 0.5-1 µM
# T1 sequence (Q16678 whole entry): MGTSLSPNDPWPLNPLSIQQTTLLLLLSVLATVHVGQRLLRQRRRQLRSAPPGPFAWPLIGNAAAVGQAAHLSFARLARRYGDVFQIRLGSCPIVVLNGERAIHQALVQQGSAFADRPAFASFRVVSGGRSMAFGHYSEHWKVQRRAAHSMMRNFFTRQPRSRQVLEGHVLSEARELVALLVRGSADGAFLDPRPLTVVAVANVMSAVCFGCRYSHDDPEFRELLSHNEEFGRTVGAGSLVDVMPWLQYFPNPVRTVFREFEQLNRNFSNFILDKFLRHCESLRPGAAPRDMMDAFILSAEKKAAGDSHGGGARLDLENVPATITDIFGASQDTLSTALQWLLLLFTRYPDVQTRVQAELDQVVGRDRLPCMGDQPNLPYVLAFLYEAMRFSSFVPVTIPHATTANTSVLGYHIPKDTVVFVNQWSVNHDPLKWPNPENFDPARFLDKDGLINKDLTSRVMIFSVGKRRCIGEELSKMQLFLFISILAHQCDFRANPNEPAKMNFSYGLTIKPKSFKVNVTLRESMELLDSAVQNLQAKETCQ
# [9] = biological target: T1, Cytochrome P450 1B1; test: Binding affinity to CYP1B1 in human HCT-15 cells assessed as increase in fluorescence signal at 0.5 to 1 uM incubated for 1 hr by DAPI staining based confocal laser scanning microscopic analysis; type: ADME, cell-based; conditions: hct-15, 1 h, dose 0.5-1 µM
# [10] = Drug distribution in BALB/C mouse xenografted with human HCT-15 cells by measuring fluorescence intensity ratio in tumor at 12 nmol at iv administration observed after 4 hrs by IVIS imaging analysis; type: ADME, organism-based, Neoplasm; conditions: in vivo
# [11] = biological target: T1, Cytochrome P450 1B1; test: Binding affinity to CYP1B1 in human HCT-15 cells assessed as increase in fluorescence signal at cytoplasm at 0.5 to 1 uM incubated for 1 hr by DAPI staining based confocal laser scanning microscopic analysis; type: ADME, cell-based; conditions: hct-15, 1 h, dose 0.5-1 µM
# [12] = Drug distribution in BALB/C mouse xenografted with human HCT-15 cells by measuring fluorescence intensity ratio in tumor at 12 nmol at iv administration in presence of CYP1B1 inhibitor, ANF observed after 6 hrs by IVIS imaging analysis; type: ADME, organism-based, Neoplasm; conditions: in vivo
# [13] = Drug distribution in BALB/C mouse xenografted with human HCT-15 cells by measuring fluorescence intensity ratio in tumor at 12 nmol at iv administration observed after 6 hrs by IVIS imaging analysis; type: ADME, organism-based, Neoplasm; conditions: in vivo
# [14] = biological target: T1, Cytochrome P450 1B1; test: Binding affinity to CYP1B1 in human HCT-15 cells assessed as apparent dissociation constant incubated for 1 hr by flow cytometry analysis; type: ADME, cell-based; conditions: read-out: Kd(app)
# [15] = Stability of the compound assessed as drug degradation observed after 24 hrs by HPLC analysis; type: physicochemical
# [16] = Drug distribution in BALB/C mouse xenografted with human HCT-15 cells assessed as increase in photoacoustic signal in tumor at 12 nmol at iv administration observed after 2 hrs by photoacoustic imaging analysis; type: ADME, organism-based, Neoplasm; conditions: in vivo
# [17] = Drug distribution in BALB/C mouse xenografted with human HCT-15 cells assessed as increase in fluorescence intensity in tumor at 12 nmol at iv administration in presence of CYP1B1 inhibitor, ANF observed after 2 to 6 hrs by IVIS imaging analysis; type: ADME, organism-based, Neoplasm; conditions: in vivo, time 2-6 hrs
# [18] = Drug distribution in BALB/C mouse xenografted with human HCT-15 cells by measuring fluorescence intensity ratio in tumor at 12 nmol at iv administration in presence of CYP1B1 inhibitor, ANF observed after 2 hrs by IVIS imaging analysis; type: ADME, organism-based, Neoplasm; conditions: in vivo
# [19] = Drug distribution in BALB/C mouse xenografted with human HCT-15 cells by measuring fluorescence intensity ratio in muscle tissue at 12 nmol at iv administration in presence of CYP1B1 inhibitor, ANF observed after 24 hrs by IVIS imaging analysis; type: ADME, organism-based; conditions: in vivo
# [20] = Drug distribution in BALB/C mouse xenografted with human HCT-15 cells by measuring fluorescence intensity ratio in tumor at 12 nmol at iv administration observed after 24 hrs by IVIS imaging analysis; type: ADME, organism-based, Neoplasm; conditions: in vivo
# [21] = Drug distribution in BALB/C mouse xenografted with human HCT-15 cells by measuring fluorescence intensity ratio in tumor at 12 nmol at iv administration in presence of CYP1B1 inhibitor, ANF observed after 4 hrs by IVIS imaging analysis; type: ADME, organism-based, Neoplasm; conditions: in vivo
# [22] = biological target: T1, Cytochrome P450 1B1; test: Binding affinity to CYP1B1 in human HFF-1 cells assessed as increase in fluorescence signal at 0.5 to 1 uM incubated for 1 hr by DAPI staining based confocal laser scanning microscopic analysis; type: ADME, cell-based; conditions: hff-1, 1 h, dose 0.5-1 µM
# [23] = Drug distribution in BALB/C mouse xenografted with human HCT-15 cells by measuring fluorescence intensity ratio in tumor at 12 nmol at iv administration in presence of CYP1B1 inhibitor, ANF observed after 24 hrs by IVIS imaging analysis; type: ADME, organism-based, Neoplasm; conditions: in vivo
# [24] = biological target: T1, Cytochrome P450 1B1; test: Binding affinity to CYP1B1 in human HCT-15 cells assessed as increase in fluorescence signal at nucleus at 0.5 to 1 uM incubated for 1 hr by DAPI staining based confocal laser scanning microscopic analysis; type: ADME, cell-based; conditions: hct-15, 1 h, dose 0.5-1 µM
# [25] = Drug distribution in BALB/C mouse xenografted with human HCT-15 cells assessed as increase in fluorescence intensity in tumor at 12 nmol at iv administration observed after 2 hr by IVIS imaging analysis; type: ADME, organism-based, Neoplasm; conditions: in vivo
# [26] = Drug distribution in BALB/C mouse xenografted with human HCT-15 cells assessed as increase in fluorescence intensity in tumor at 12 nmol at iv administration observed after 6 hr by IVIS imaging analysis; type: ADME, organism-based, Neoplasm; conditions: in vivo
compound,measurement,setting,value
CCN1/C(=C/C=C/C=C/C2=[N+](CCCCCC(=O)NCCOCCOCCOCCOc3cc(F)cc(-c4cc(=O)c5cc(OC)c6c(OC)ccc(OC)c6c5o4)c3)c3ccc4c(S(=O)(=O)[O-])cc(S(=O)(=O)O)cc4c3C2(C)C)C(C)(C)c2c1ccc1c(S(=O)(=O)O)cc(S(=O)(=O)O)cc21,Drug uptake,[1],Not Active
same,Ratio,[2],26.51
same,Drug uptake,[3],Active
same,Activity,[4],Non-Toxic
same,Ratio,[5],1.92
same,Drug uptake,[6],Active
same,viability at 10 µM,[7],> 80%
same,Activity,[8],Not Active
same,Activity,[9],Active
same,Ratio,[10],1.95
same,Activity,[11],Active
same,Ratio,[12],1.32
same,Ratio,[13],2.15
same,Kd,[14],93.7 nM
same,Stability,[15],Stable
same,Drug uptake,[16],Active
same,Drug uptake,[17],Not Active
same,Ratio,[18],1.06
same,Ratio,[19],12.1
same,Ratio,[20],1.69
same,Ratio,[21],1.19
same,Activity,[22],Not Active
same,Ratio,[23],1.34
same,Activity,[24],Active
same,Drug uptake,[25],Active
same,Drug uptake,[26],Active
